Entries after “also recorded” stand apart in the source; their conditions may differ.

In test [1] the test system is human chondrocytes (NHAC-kn). As to the kind of experiment: Pro-inflammatory model of chondrocytes treated with IL-1β, cytokine release (Multiplex). The conditions noted are these: chondrocytes treated with IL-1β (1 ng/mL). Type of test: cell-based. The protocol: Values were obtained from each analyte in pg/mL from treatment with the peptides in the presence of IL-1β (1 ng/mL). The data are presented as the mean±MSE (* p<0.05 when compared to the control with IL-1β, test t, n=3).
(B) Chondrocytes were pretreated for 1 hour with IL-1β (1 ng/mL) before the addition of peptides (200 nM, 500 nM, and 1.25 μM) and an additional incubation of 24 hours before collecting the supernatants.
The primary human chondrocytes used in this assay were purchased from Lonza: Normal Human Articular Primary chondrocytes (NHAC-Kn, #CC-2550, Lot 8F3336). Chondrocyte cell culture was performed in bottles (Sarstedt T175 and T75). The cells were cultivated in DMEM culture medium (Sigma) supplemented with 10% fetal bovine serum (FBS) (Sigma), incubated in an oven at 37° C. and 5% CO2, and cultures were used in the sixth passage. The culture medium was changed every two days until the culture reached 80% confluence.
The identification and quantitative analysis of the cytokines present in the peptide treatment supernatant were performed using the Luminex xMAP Milliplex MAP Human Cytokine/Chemokine Magnetic Bead Panel Catalog #HCYTOMAG-60K technology, according to the manufacturer's instructions.
Values were obtained from each analyte in pg/mL from treatment with the peptides in the presence of IL-1β (1 ng/mL). The data are presented as the mean±MSE (*p<0.05 when compared to the control with IL-1β, test t, n=3).

Test [2] deals with neurons obtained from SHSY5Y cells. As to the kind of experiment: Anti-nociceptive/anti-inflammatory model, neurons stimulated with glycated collagen (GC): substance P and β-endorphin in supernatant. The class given is cell-based. On the procedure:
ANOVA and Dunnet * p<0.05; ** p<0.01 compared to glycated collagen (GC);
ANOVA and Dunnet * p<0.05 ** p<0.01, *** p<0.001 compared with GC;
The differentiation process consists of 6 stages distributed over 7 days. On the first day of the differentiation protocol (day 0), cells were seeded in collagen-coated plates. On days 1, 3, and 4 the culture medium was removed, and the differentiation medium containing 2% fetal bovine serum (FBS) and retinoic acid (RA) 10 μM) was added. On day 5, the medium was removed and the culture was incubated with culture medium and brain-derived neurotrophic factor (BDNF) (50 ng/mL). On day 7 of the differentiation process, differentiated neurons are fully ready for use (Agholme et al., 2010, with some modifications).
7×10^3 neurons/well were incubated with 10 μM of morphine (inhibitory response control) or peptides (200 nM and 500 nM) 3 hours before or 3 hours after incubation with IL-1β (10 ng/mL) or glycated collagen (GC) (100 μg/mL) (both positive controls for the release of substance P). After 24 hours of incubation, the cell viability assay and the detection of substance P and β-endorphin in the supernatant were performed. Multiplex with magnetic spheres (MILLIPLEX® MAP Magnetic Bead Panel)
ANOVA and Dunnet * p<0.05; ** p<0.01 compared to GC.
ANOVA and Dunnet * p<0.05 ** p<0.01, *** p<0.001 compared to GC.

The test system of test [3] is osteoclast precursors (PBMNC). The test can be described thus: Osteoclast differentiation model, TRAP+ cell count. The class given is cell-based, human. The conditions noted are these: peptide 200 nM added on day four to osteoclast precursor culture, 15 days; compared to positive control (CTRL). On the procedure: A. Positive differentiation controls. B. Influence of synthetic peptides (200 nM) on osteoclast differentiation. C. Negative differentiation control. αMEM—Minimum Essential Medium Eagle Alpha Modification; FBS—fetal bovine serum; TRANCE—Tumor Necrosis Factor (TNF)-related Activation-induced Cytokine; M-CSF—Macrophage Colony-Stimulating Factor; TGF-β1—Transforming growth factor beta-1.
The present invention includes the culture of monocytic cells of human leukemia (THP-1), osteoclast, primary human blood-derived mononuclear cells (PBMNC), and human chondrocytes (NHAC-kn).
Negative differentiation controls. B. Influence of synthetic peptides (200 nM) on osteoclast differentiation.
PBMNC were isolated and, immediately after, plating inductive culture medium (composed of Alpha-MEM+10% FBS+MCSF [25 ng/mL]+RANKL [50 ng/mL]+TGF-beta 1 [5 ng/mL]+Dexamethasone [1 μM]) was added for 15 days. On day four, the L. obliqua venom at a concentration of […] or toxins at a concentration of 200 nM, each individually, was added to the osteoclast precursor culture and these culture conditions were maintained until the end of the differentiation. Then, the cells were fixed and stained with tartrate-resistant acid phosphatase (TRAP).

Test [4] concerns THP-1 cells differentiated into macrophages. The test can be described thus: LPS-induced cytokine production in THP-1-derived macrophages (Multiplex). Type of test: cell-based, human. On the procedure: THP-1 cells differentiated into macrophages were induced with LPS (10 ng/mL) and, one hour later, treated with synthetic peptides at a concentration of 200 nM. Dexamethasone (10 μM), an inflammatory inhibitor, was used as a control. After 24 hours, the culture medium was collected to measure the IL-1β (A), IL-6 (B), TNF-α (C), and IL-10 cytokines using a Multiplex kit. * p<0.05 vs. LPS; ** p<0.01 vs. LPS; *** p<0.005 vs. LPS;
THP-1 cells differentiated into macrophages were induced with LPS (10 ng/mL) and, one hour later, treated with L4 or D3 peptide (0.05 μM, 0.2 μM, 1 μM, and 2 μM). After 24 hours, the culture medium was collected and TNF-alpha, IL-6, IL-23, and IL-8 were measured by Multiplex. (A) L4 peptide. (B) D3 peptide;
Macrophages were obtained from the differentiation of monocytes THP-1. Briefly, 1×10^7 cells were treated in the RPMI medium with 25 nM PMA for 48 hours followed by 24 hours of rest in medium without PMA. Subsequently, the cells were released and plated for the respective treatments.
The kit is based on Luminex® xMAP® technology that allows the simultaneous analysis of various cytokines. The technique is based on marked magnetic fluorescent spheres, known as MagPlex®-C microspheres. These microspheres are covered with capture antibodies specific for IL-6 […], and specifically capture the analyte in the supernatant. Each microsphere was individually identified and the results were analyzed using Luminex® Xponent® 4.2 acquisition software.
THP-1 cells differentiated into macrophages were induced with LPS (10 ng/mL) and, one hour later, treated with synthetic peptides, […] (inflammation inhibitor, 10 μM). After 24 hours, the culture medium was collected and IL-1β (A), IL-6 (B), TNF-α (C), and IL-10 were measured by Multiplex. * p<0.05 vs. LPS; ** p<0.01 vs. LPS; *** p<0.005 vs. LPS.
THP-1 cells differentiated into macrophages were induced with LPS (10 ng/mL) and, one hour after, treated with L4 (0.05 μM, 0.2 μM, 1 μM, and 2 μM). After 24 hours, the culture medium was collected and TNF-α, IL-6, IL-23, and IL-8 were measured by Multiplex. (A) L4 peptide. (B) D3 peptide.

The mark [5] stands for this setting: peptide 200 nM incubated 3 hours after GC (100 μg/mL).
The mark [6] stands for this setting: LPS 10 ng/mL, peptide 200 nM one hour later, 24 hours, vs group treated only with LPS.
The mark [7] stands for this setting: dose-response 0.05, 0.2, 1 and 2 μM, LPS 10 ng/mL, 24 hours.

For “SWLKNGREFR (Designated peptide based on the motif of a group of proteins called hemoline from lepidoptera acting as an anti-inflammatory molecule) [L5]”, the “anti-inflammatory activity (release of G-CSF, GM-CSF, IL-6, IL-8, MCP-1, TNF-α)” value in test [1] is listed as “anti-inflammatory activity”.
Same read-out and setting: with “VWRKNGKKVS (Designated peptide based on the motif of a group of proteins called hemoline from lepidoptera acting as an anti-inflammatory molecule) [L3]” the entry was “anti-inflammatory activity”; with “IWTKDGKAIT (Designated peptide based on the motif of a group of proteins called hemoline from lepidoptera acting as an anti-inflammatory molecule) [L1]”, “anti-inflammatory activity”; with “RWLKDGQAFH (Designated peptide based on the motif of a group of proteins called hemoline from lepidoptera acting as an anti-inflammatory molecule) [L8]”, “anti-inflammatory activity”.
In the case of “YSIVAGCL (Designated peptide based on the motif of a group of proteins called hemoline from lepidoptera acting as an anti-inflammatory molecule) [E8]”, the “anti-inflammatory activity (release of G-CSF, GM-CSF, IL-6, IL-8, MCP-1, TNF-α)” value in test [1] is reported as “anti-inflammatory activity”. In addition, in test [2] (setting [5]), the “production of Substance P” value was “significantly inhibited” and the “production of β-endorphin” value was “increased”.
Regarding “EEQTHFHFESPKLISFKVQDYWILNDIMKKNLTGISLKSEEEDADSGEID (Designated peptide based on the motif of a group of proteins called hemoline from lepidoptera acting as an anti-inflammatory molecule) [Cambly, peptide derived from the Amblyomin-X molecule with characteristics of CPP (cell-penetrating peptides)]”, the “number of TRAP+ cells” value in test [3] was “reduced”. Also, the “production of Substance P” value in test [2] (setting [5]) is recorded as “significantly inhibited”; in test [2] (peptide (200 nM and 500 nM) incubated 3 hours before GC (100 μg/mL)) it was “significantly decrease; also recorded: inhibited”. For the same molecule, the “production of β-endorphin” value in test [2] (setting [5]) is recorded as “increased”; in test [2] (peptide incubated 3 hours before GC (100 μg/mL)), “did not affect”.
On to “QPEISWTRNK (Designated peptide based on the motif of a group of proteins called hemoline from lepidoptera acting as an anti-inflammatory molecule) [L6]”, for which, in test [1], the “anti-inflammatory activity (release of G-CSF, GM-CSF, IL-6, IL-8, MCP-1, TNF-α)” value is given as “anti-inflammatory activity”.
Regarding “TWNKKGKKVN (Designated peptide based on the motif of a group of proteins called hemoline from lepidoptera acting as an anti-inflammatory molecule) [L4]”, in test [1], the “anti-inflammatory activity (release of G-CSF, GM-CSF, IL-6, IL-8, MCP-1, TNF-α)” value is “anti-inflammatory activity”. Further, the “levels of IL-10 (anti-inflammatory cytokine)” value in test [4] (LPS 10 ng/mL, peptide 200 nM one hour later, 24 hours) is reported as “increase”. In test [4] (setting [6]), the “levels of IL-1β” value is recorded as “significantly reducing”, the “levels of IL-6” value was “significantly reducing” and the “levels of TNF-a” value was “significantly reducing”. Moreover, in test [4] (setting [7]), the “dose achieving the greatest inhibition of IL-6 release” value is 200 nM, the “dose achieving the greatest inhibition of IL-8 release” value amounted to 200 nM, the “most effective dose concerning IL-23 release” value was found to be 1 µM and the “most effective dose concerning TNF-α release” value is 1 µM. Besides, the “production of inflammatory cytokines in response to LPS (dose-dependent)” value in test [4] (dose-response 0.05-2 μM, TNF-α, IL-6, IL-23, IL-8) is on record as “reduced”.
Turning to “NYFKNGKDVN (Designated peptide based on the motif of a group of proteins called hemoline from lepidoptera acting as an anti-inflammatory molecule) [L2]”, in test [1], the “anti-inflammatory activity (release of G-CSF, GM-CSF, IL-6, IL-8, MCP-1, TNF-α)” value is “anti-inflammatory activity”. Also, the “number of TRAP+ cells” value in test [3] is “no statistically significant difference”.

B1: YSIVAGSLGGGGEEQTHFHFESPKLISFKVQDYWILNDIMKKNLTGISLKSEEEDADSGEID (peptide)
chain: YSIVAGSLGGGGEEQTHFHFESPKLISFKVQDYWILNDIMKKNLTGISLKSEEEDADSGEID
modifications: Designated peptide based on the motif of a group of proteins called hemoline from lepidoptera acting as an anti-inflammatory molecule
As for B1, the “number of TRAP+ cells” value in test [3] is recorded as “significant decrease; also recorded: reduced”.

B2: YAIGYSSKDYKGGGGEEQTHFHFESPKLISFKVQDYWILNDIMKKNLTGISLKSEEEDADSGEID (peptide)
chain: YAIGYSSKDYKGGGGEEQTHFHFESPKLISFKVQDYWILNDIMKKNLTGISLKSEEEDADSGEID
modifications: Designated peptide based on the motif of a group of proteins called hemoline from lepidoptera acting as an anti-inflammatory molecule
For B2, in test [2] (setting [5]), the “production of Substance P” value is on record as “significantly inhibited” and the “production of β-endorphin” value is “increased”.
